PubChem BioAssay AID1918999 (Molecular Pharmacology Branch, DTP, NCI, 2023)
Several values for one entry are separate records, joined by “and”; a condition that tells them apart may be missing. Identical values can stand only once.

System: 556581-035-R-J1-PDC complex spheroid growth
Experiment: Anticancer human tumor 556581-035-R-J1-PDC patient-derived ovarian carcinoma cell line growth inhibition [AhR]
Settings: for viability, T/C: stronger effect = lower value; active means viability on the fitted dose curve at most 10% of control; inactive means the rest
In short: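 Agents were dosed in half-log steps down from roughly clinical Cmax, or from 10 microM where Cmax was unknown, alone and with AhR antagonists. Read-out: percent test/control growth of tumor spheroids containing HUVEC and MSC stromal cells.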

[1] = curve of first compound, second compound 0.1 µM
[2] = curve of first compound, second compound 0.316 µM
[3] = curve of first compound, second compound 1 µM
[4] = curve of first compound, second compound 3.16 µM
[5] = curve of first compound, second compound 10 µM
[6] = second compound 0.1 µM, first compound 0.00949 µM
[7] = second compound 0.1 µM, first compound 0.03 µM
[8] = second compound 0.1 µM, first compound 0.0949 µM
[9] = second compound 0.1 µM, first compound 0.3 µM
[10] = second compound 0.1 µM, first compound 0.949 µM
[11] = second compound 0.1 µM, first compound 3 µM
[12] = second compound 0.316 µM, first compound 0.00949 µM
[13] = second compound 0.316 µM, first compound 0.03 µM
[14] = second compound 0.316 µM, first compound 0.0949 µM
[15] = second compound 0.316 µM, first compound 0.3 µM
[16] = second compound 0.316 µM, first compound 0.949 µM
[17] = second compound 0.316 µM, first compound 3 µM
[18] = second compound 1 µM, first compound 0.00949 µM
[19] = second compound 1 µM, first compound 0.03 µM
[20] = second compound 1 µM, first compound 0.0949 µM
[21] = second compound 1 µM, first compound 0.3 µM
[22] = second compound 1 µM, first compound 0.949 µM
[23] = second compound 1 µM, first compound 3 µM
[24] = second compound 3.16 µM, first compound 0.00949 µM
[25] = second compound 3.16 µM, first compound 0.03 µM
[26] = second compound 3.16 µM, first compound 0.0949 µM
[27] = second compound 3.16 µM, first compound 0.3 µM
[28] = second compound 3.16 µM, first compound 0.949 µM
[29] = second compound 3.16 µM, first compound 3 µM
[30] = second compound 10 µM, first compound 0.00949 µM
[31] = second compound 10 µM, first compound 0.03 µM
[32] = second compound 10 µM, first compound 0.0949 µM
[33] = second compound 10 µM, first compound 0.3 µM
[34] = second compound 10 µM, first compound 0.949 µM
[35] = second compound 10 µM, first compound 3 µM
[36] = second compound 0.1 µM, first compound 0.0316 µM
[37] = second compound 0.1 µM, first compound 0.1 µM
[38] = second compound 0.1 µM, first compound 0.316 µM
[39] = second compound 0.1 µM, first compound 1 µM
[40] = second compound 0.1 µM, first compound 3.16 µM
[41] = second compound 0.1 µM, first compound 10 µM
[42] = second compound 0.316 µM, first compound 0.0316 µM
[43] = second compound 0.316 µM, first compound 0.1 µM
[44] = second compound 0.316 µM, first compound 0.316 µM
[45] = second compound 0.316 µM, first compound 1 µM
[46] = second compound 0.316 µM, first compound 3.16 µM
[47] = second compound 0.316 µM, first compound 10 µM
[48] = second compound 1 µM, first compound 0.0316 µM
[49] = second compound 1 µM, first compound 0.1 µM
[50] = second compound 1 µM, first compound 0.316 µM
[51] = second compound 1 µM, first compound 1 µM
[52] = second compound 1 µM, first compound 3.16 µM
[53] = second compound 1 µM, first compound 10 µM
[54] = second compound 3.16 µM, first compound 0.0316 µM
[55] = second compound 3.16 µM, first compound 0.1 µM
[56] = second compound 3.16 µM, first compound 0.316 µM
[57] = second compound 3.16 µM, first compound 1 µM
[58] = second compound 3.16 µM, first compound 3.16 µM
[59] = second compound 3.16 µM, first compound 10 µM
[60] = second compound 10 µM, first compound 0.0316 µM
[61] = second compound 10 µM, first compound 0.1 µM
[62] = second compound 10 µM, first compound 0.316 µM
[63] = second compound 10 µM, first compound 1 µM
[64] = second compound 10 µM, first compound 3.16 µM
[65] = second compound 10 µM, first compound 10 µM
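Wherever viability, T/C is given: compound exposure lasted 7 days; 100% = DMSO vehicle control growth.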

O=C(C=Cn1cnc(-c2cc(C(F)(F)F)cc(C(F)(F)F)c2)n1)NNc1cnccn1 + Cc1cncc(-c2nc(NCCc3c[nH]c4ccccc34)c3ncn(C(C)C)c3n2)c1
> 3000 nM: IC50 [1] | IC50 [2] | IC50 [4] | IC50 [5]
inactive: viability, T/C [6] 94.2% | viability, T/C [7] 99.9% | viability, T/C [8] 95.5% | viability, T/C [9] 85.9% | viability, T/C [10] 70.8% | viability, T/C [11] 56.3% | viability, T/C [12] 85.5% | viability, T/C [13] 96.2% | viability, T/C [14] 74.8% | viability, T/C [15] 73.8% | viability, T/C [16] 62.6% | viability, T/C [17] 50.1% | viability, T/C [18] 93.9% | viability, T/C [19] 94.8% | viability, T/C [20] 87.5% | viability, T/C [21] 78.2% | viability, T/C [22] 65.4% | viability, T/C [23] 39.4% | viability, T/C [24] 92.8% | viability, T/C [25] 97.1% | viability, T/C [26] 95.9% | viability, T/C [27] 74.8% | viability, T/C [28] 57.3% | viability, T/C [29] 50.4% | viability, T/C [30] 81.6% | viability, T/C [31] 84.6% | viability, T/C [32] 73.9% | viability, T/C [33] 72.7% | viability, T/C [34] 64.8% | viability, T/C [35] 68.9%
1860 nM: IC50 [3]

Nc1ncn(C2CC(O)C(CO)S2)c(=O)n1 (configuration not stated) + CC(CO)NC(=O)c1cc(-c2ccc(Cl)cc2)nn(-c2cnn(C)c2)c1=O
> 300 nM: IC50 [1] | IC50 [2] | IC50 [3] | IC50 [4] | IC50 [5]
inactive: viability, T/C (second compound 0.1 µM, first compound 0.000949 µM) 122% | viability, T/C (second compound 0.1 µM, first compound 0.003 µM) 117% | viability, T/C [6] 106% | viability, T/C [7] 115% | viability, T/C [8] 109% | viability, T/C [9] 73.3% | viability, T/C (second compound 0.316 µM, first compound 0.000949 µM) 112% | viability, T/C (second compound 0.316 µM, first compound 0.003 µM) 106% | viability, T/C [12] 116% | viability, T/C [13] 111% | viability, T/C [14] 100% | viability, T/C [15] 69.9% | viability, T/C (second compound 1 µM, first compound 0.000949 µM) 114% | viability, T/C (second compound 1 µM, first compound 0.003 µM) 131% | viability, T/C [18] 126% | viability, T/C [19] 121% | viability, T/C [20] 108% | viability, T/C [21] 80.2% | viability, T/C (second compound 3.16 µM, first compound 0.000949 µM) 123% | viability, T/C (second compound 3.16 µM, first compound 0.003 µM) 128% | viability, T/C [24] 125% | viability, T/C [25] 109% | viability, T/C [26] 97.1% | viability, T/C [27] 80.8% | viability, T/C (second compound 10 µM, first compound 0.000949 µM) 122% | viability, T/C (second compound 10 µM, first compound 0.003 µM) 111% | viability, T/C [30] 111% | viability, T/C [31] 125% | viability, T/C [32] 106% | viability, T/C [33] 84%

CCN(c1cc(-c2ccc(CN3CCOCC3)cc2)cc(C(=O)NCc2c(C)cc(C)[nH]c2=O)c1C)C1CCOCC1 + Cc1cncc(-c2nc(NCCc3c[nH]c4ccccc34)c3ncn(C(C)C)c3n2)c1
2230 nM: IC50 [5]
inactive: viability, T/C [6] 97.7% | viability, T/C [7] 109% | viability, T/C [8] 96.2% | viability, T/C [9] 102% | viability, T/C [10] 102% | viability, T/C [11] 100% | viability, T/C [12] 98% | viability, T/C [13] 96.2% | viability, T/C [14] 102% | viability, T/C [15] 101% | viability, T/C [16] 99.5% | viability, T/C [17] 104% | viability, T/C [18] 104% | viability, T/C [19] 118% | viability, T/C [20] 112% | viability, T/C [21] 94.9% | viability, T/C [22] 88.2% | viability, T/C [23] 92.3% | viability, T/C [24] 86.4% | viability, T/C [25] 99.3% | viability, T/C [26] 101% | viability, T/C [27] 88.6% | viability, T/C [28] 92.1% | viability, T/C [29] 92.2% | viability, T/C [30] 84.4% | viability, T/C [31] 83.8% | viability, T/C [32] 83.3% | viability, T/C [33] 69.6% | viability, T/C [34] 66.5% | viability, T/C [35] 44.3%
> 3000 nM: IC50 [1] | IC50 [2] | IC50 [3] | IC50 [4]

CC(C)c1c(-c2ccccc2)nc2c(C#N)c[nH]n2c1=O + Cc1cncc(-c2nc(NCCc3c[nH]c4ccccc34)c3ncn(C(C)C)c3n2)c1
> 10000 nM: IC50 [1] | IC50 [2] | IC50 [3] | IC50 [4] | IC50 [5]
inactive: viability, T/C [36] 110% | viability, T/C [37] 106% | viability, T/C [38] 102% | viability, T/C [39] 103% | viability, T/C [40] 108% | viability, T/C [41] 88.5% | viability, T/C [42] 106% | viability, T/C [43] 110% | viability, T/C [44] 96.9% | viability, T/C [45] 108% | viability, T/C [46] 95.6% | viability, T/C [47] 96.3% | viability, T/C [48] 97.4% | viability, T/C [49] 107% | viability, T/C [50] 114% | viability, T/C [51] 102% | viability, T/C [52] 91.8% | viability, T/C [53] 102% | viability, T/C [54] 98.6% | viability, T/C [55] 104% | viability, T/C [56] 99.2% | viability, T/C [57] 92.7% | viability, T/C [58] 95.5% | viability, T/C [59] 90.5% | viability, T/C [60] 76.5% | viability, T/C [61] 84% | viability, T/C [62] 90% | viability, T/C [63] 71.1% | viability, T/C [64] 68.2% | viability, T/C [65] 70.7%

Nc1ncn(C2CC(O)C(CO)O2)c(=O)n1 (configuration not stated)
inactive: viability, T/C (compound 0.00316 µM) 90.6% and 101% and 102% | viability, T/C (compound 0.01 µM) 101% (2×) and 105% | viability, T/C (compound 0.0316 µM) 91.6% and 90.4% and 90.8% | viability, T/C (compound 0.1 µM) 95.1% and 95.6% and 86.2% | viability, T/C (compound 0.316 µM) 95.8% and 81.7% and 82.5% | viability, T/C (compound 1 µM) 83.9% and 75.5% and 76.9%
> 1000 nM: IC50 (curve of compound)

O=C(C=Cc1cccc(S(=O)(=O)Nc2ccccc2)c1)NO + Cc1cncc(-c2nc(NCCc3c[nH]c4ccccc34)c3ncn(C(C)C)c3n2)c1
1480 nM: IC50 [1]
938 nM: IC50 [5]
active: viability, T/C [41] 3.96% | viability, T/C [47] 3.92% | viability, T/C [53] 5.09% | viability, T/C [59] 6.45% | viability, T/C [65] 4.13%
1460 nM: IC50 [4]
1680 nM: IC50 [2]
inactive: viability, T/C [36] 106% | viability, T/C [37] 118% | viability, T/C [38] 90.2% | viability, T/C [39] 58% | viability, T/C [40] 32% | viability, T/C [42] 102% | viability, T/C [43] 104% | viability, T/C [44] 87.3% | viability, T/C [45] 69.6% | viability, T/C [46] 27.9% | viability, T/C [48] 111% | viability, T/C [49] 114% | viability, T/C [50] 82.2% | viability, T/C [51] 60.9% | viability, T/C [52] 28.9% | viability, T/C [54] 108% | viability, T/C [55] 101% | viability, T/C [56] 87% | viability, T/C [57] 62.5% | viability, T/C [58] 26.9% | viability, T/C [60] 92.2% | viability, T/C [61] 88.8% | viability, T/C [62] 80.1% | viability, T/C [63] 43.5% | viability, T/C [64] 24.8%
1420 nM: IC50 [3]
